{"source": "ChEMBL document CHEMBL1201862", "about": "“PubChem BioAssay data set” (2004)", "test_in_all_cases": "growth of human tumour cells (NCI), 48 h", "key": {"[1]": {"test_system": "MDA-N"}, "[2]": {"test_system": "MDA-MB-231"}, "[3]": {"test_system": "BT-549"}, "[4]": {"test_system": "Hs-578T"}, "[5]": {"test_system": "KM-20L2"}, "[6]": {"test_system": "XF498"}, "[7]": {"test_system": "RXF 631"}, "[8]": {"test_system": "LXFL 529"}}, "note": "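Cells were grown in 96-well plates and exposed to each compound for 48 hours at five concentrations; endpoints were interpolated linearly between bracketing concentrations, or set to the highest concentration if not reached. Abbreviation: GI50, concentration required for 50% inhibition of growth.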 Calls of active or inactive are those of the source. No stated cut-off is given here; in the data, active = GI50 up to about 1.1 µM and inactive = higher."}
{"smiles": "O=c1ccn(COC(COCc2ccccc2)COCc2ccccc2)c(=O)[nH]1", "values": [{"measurement": "GI50", "setting": "[1]", "value": "> 100 µM (inactive)"}, {"measurement": "GI50", "setting": "[2]", "value": "55.3 µM (inactive)"}, {"measurement": "GI50", "setting": "[3]", "value": "> 100 µM (inactive)"}, {"measurement": "GI50", "setting": "[4]", "value": "> 100 µM (inactive)"}]}
{"smiles": "O=C(/C=N/c1ccccc1S)c1ccco1", "values": [{"measurement": "GI50", "setting": "[5]", "value": "14.5 µM (inactive)"}]}
{"smiles": "COc1cc(/C=C/C(=O)Oc2ccc(NC(C)=O)cc2)ccc1C(=O)O/C=C/c1ccccc1", "values": [{"measurement": "GI50", "setting": "[6]", "value": "> 100 µM (inactive)"}, {"measurement": "GI50", "setting": "[5]", "value": "> 100 µM (inactive)"}]}
{"smiles": "CCOC(=O)NC(Nc1ncccn1)(C(=O)OCC)C(F)(F)F", "note": "(configuration not stated)", "values": [{"measurement": "GI50", "setting": "[1]", "value": "> 100 µM (inactive)"}, {"measurement": "GI50", "setting": "[2]", "value": "> 100 µM (inactive)"}, {"measurement": "GI50", "setting": "[3]", "value": "> 100 µM (inactive)"}, {"measurement": "GI50", "setting": "[4]", "value": "> 100 µM (inactive)"}]}
{"smiles": "O=C=C=P(c1ccccc1)(c1ccccc1)c1ccccc1", "values": [{"measurement": "GI50", "setting": "[6]", "value": "29 µM (inactive)"}, {"measurement": "GI50", "setting": "[7]", "value": "62.1 µM (inactive)"}, {"measurement": "GI50", "setting": "[8]", "value": "35 µM (inactive)"}]}
{"smiles": "O=c1[nH]c(-c2ccc(Cl)cc2)cc2ccsc12", "values": [{"measurement": "GI50", "setting": "[1]", "value": "1.58 µM (inactive)"}, {"measurement": "GI50", "setting": "[3]", "value": "4.82 µM (inactive)"}]}
{"smiles": "COc1ccc(C[C@H](N)C(=O)N2C[C@H](CO)C[C@H](n3ccc(=O)[nH]c3=O)C2)cc1", "values": [{"measurement": "GI50", "setting": "[8]", "value": "> 100 µM (inactive)"}, {"measurement": "GI50", "setting": "[5]", "value": "> 100 µM (inactive)"}]}
{"smiles": "O=C1c2ccccc2C(=O)N1CC(O)COc1cccc2ccccc12", "note": "(configuration not stated)", "values": [{"measurement": "GI50", "setting": "[1]", "value": "> 100 µM (inactive)"}, {"measurement": "GI50", "setting": "[2]", "value": "> 100 µM (inactive)"}]}
{"smiles": "CC(=O)OC1CCC2(C)C(CCC3C2CCC2(C)C(c4ccc(=O)oc4)C(OC(C)=O)CC32O)C1", "note": "(configuration not stated)", "values": [{"measurement": "GI50", "setting": "[6]", "value": "0.0244 µM (active)"}, {"measurement": "GI50", "setting": "[5]", "value": "0.0188 µM (active)"}]}
